In article PMC7770833, “Design, Synthesis, and Biological Evaluation of a Series of Oxazolone Carboxamides as a Novel Class of Acid Ceramidase Inhibitors” (Journal of Medicinal Chemistry, 2020):

Legend:
[1] = target: T1, human N-acylethanolamine acid amidase (hNAAA) (Homo sapiens, UniProt Q02083); assay: Fluorogenic hNAAA assay; type: biochemical; conditions: at up to 125 μM
T1 construct: expressed in transfected cells; lysosome-enriched lysate
T1 sequence (Q02083 29-359): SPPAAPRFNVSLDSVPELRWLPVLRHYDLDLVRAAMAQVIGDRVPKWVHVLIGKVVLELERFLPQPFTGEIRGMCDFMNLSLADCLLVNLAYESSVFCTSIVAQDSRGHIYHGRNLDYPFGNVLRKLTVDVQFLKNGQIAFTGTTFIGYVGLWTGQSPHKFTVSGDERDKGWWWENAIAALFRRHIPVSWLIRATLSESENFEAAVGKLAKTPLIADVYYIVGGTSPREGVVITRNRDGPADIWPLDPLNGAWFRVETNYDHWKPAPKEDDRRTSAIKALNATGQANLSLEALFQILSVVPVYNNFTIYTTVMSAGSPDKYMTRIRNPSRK
Experimental: HEK-293 cells stably transfected with the hNAAA coding sequence cloned from a human spleen cDNA library (catalog no. 639124, Clontech, Mountain View, CA, USA) were used as the enzyme source. Cells were grown in DMEM containing 10% FBS, 1% glutamine, 1 mM sodium pyruvate, and 500 μg/mL G418. Cells were harvested and pellets were stored at −80 °C until lysosomal-enriched lysate preparation. Cells were suspended in 20 mM Tris HCl (pH 7.4) with 0.32 M sucrose, sonicated, and centrifuged at 800 × g for 30 min at 4 °C. Supernatants were then ultracentrifuged at 12 000 × g for 30 min at 4 °C. Pellets were re-suspended in PBS buffer (pH 7.4) and subjected to three freeze–thaw cycles at −80 °C. The suspension was finally ultracentrifuged at 105 000 × g for 1 h at 4 °C, supernatants were collected, protein concentration was measured, and samples aliquoted and stored at −80 °C until use.
The assay was run in 96-well microplates (Black OptiPlate-96 F; PerkinElmer, Massachusetts, USA) in a total reaction volume of 200 μL. hNAAA protein preparation (4.0 μg) was pre-incubated for 30 min with various concentrations of test compounds or vehicle control (DMSO 5%) in 100 mM citrate/phosphate buffer (pH 4.5) containing 3.0 mM dithiothreitol (DTT), 0.1% NP40 0.1%, 0.05% bovine serum albumin, and 150 mM NaCl. […]

[2] = In vitro microsomal stability study, human liver microsomes; type: in vitro ADME
Experimental: Freshly prepared 10 mM CH3CN stock solution of the test compound was pre-incubated at 37 °C for 15 min with mouse/human liver microsomes added 0.1 M Tris-HCl buffer (pH 7.4). The final concentration was 4.6 μM. After pre-incubation, the cofactors (NADPH, G6P, G6PDH, and MgCl2 pre-dissolved in 0.1 M Tris-HCl) were added to the incubation mixture and the incubation was continued at 37 °C for 1 h. At each time point (0, 5, 15, 30, and 60 min), 30 μL of the incubation mixture was diluted with 200 μL of cold CH3CN spiked with 200 nM of the internal standard, followed by centrifugation at 3300g for 15 min. The supernatant was further diluted with H2O (1:1) for analysis. The concentration of the test compound was quantified by LC/MS–MS on a Waters Acquity UPLC/MS TQD system consisting of TQD MS equipped with an ESI interface. The analyses were run on an Acquity UPLC BEH C18 (50 × 2.1 mm ID, particle size 1.7 μm) with a VanGuard BEH C18 pre-column (5 × 2.1 mm ID, particle size 1.7 μm) at 40 °C. For each compound, the appropriate mobile phase was chosen. ESI was applied in positive mode. The percentage of the test compound remaining at each time point relative to t = 0 was calculated. The t1/2 were determined by a one-phase decay equation using a nonlinear regression of the compound concentration versus time. […]

[3] = test system: human neuroblastoma SH-SY5Y cells; assay: Sphingolipid levels in SH-SY5Y cells (LC/MS); type: cell-based
Experimental: SH-SY5Y cells were purchased from Sigma Aldrich (Italy) and cultured in DMEM containing 10% FBS at 37 °C and 5% CO2. Drugs were dissolved in DMSO (10 mM) and diluted in cell culture medium with reduced serum (1%) for cell treatments.
Lipid extraction and SL measurements were performed as previously described.[59],[61],[75] Lipids were extracted with a CHCl3/MeOH mixture (2:1, 3 mL) spike with internal standards. The organic phase was collected, dried under N2, and dissolved in CHCl3/MeOH (1:3) for LC/MS analyses. Ceramides and sphingosine were analyzed by LC/MS/MS, using a Waters Acquity UPLC coupled to a Waters Xevo triple quadrupole mass spectrometer (TQMS) and interfaced with an ESI ion source. Separation was performed on a Waters Acquity BEH C18 1.7 μm column (2.1 × 50 mm) at 60 °C. A linear gradient of 0.1% HCOOH in CH3CN/i-PrOH (20:80) as solvent B in 0.1% HCOOH in CH3CN/H2O (20:80) as solvent A and was applied at a flow rate of 0.4 mL/min. The detection of SLs was performed in positive ion mode. Capillary voltage was 3.5 kV and cone voltage was 25 V. The source temperature and desolvation temperatures were set at 120 and 600 °C, respectively. Desolvation gas and cone gas (N2) flows were 800 and 20 L/h, respectively. Ceramides were identified by comparison of their LC retention times and MS/MS fragmentation patterns with those of authentic standards (Avanti Polar Lipids). Multiple reaction monitoring (MRM) ion chromatograms were used to quantify dihydroceramide (Cer(d18:0/16:0), Rt = 4.6 min, m/z: 540.5 > 522.5), palmitoyl ceramide (Cer(d18:1/16:0), Rt = 4.5 min, m/z: 520.3 > 264.2) sphingosine (So(d18:1), Rt = 2.6 min, m/z: 300.2 > 282.2), sphingomyelin (SM(d18:1/16:0), Rt = 4.2 min, m/z: 703.2 > 184.1) and hexosylceramide (HexCer (d18:1/16:0), 4.3 min, m/z: 682.2 > 264.2). Detection and analysis were controlled by Waters MassLynx software version 4.1. Calibration curves were prepared for every experiment.

For `CCCCCNC(=O)n1cc(-c2ccc(F)cc2C2CCN(C)CC2)oc1=O` [Compound 32b, 5-[4-Fluoro-2-(1-methyl-4-piperidyl)phenyl]-2-oxo-N-pentyl-oxazole-3-carboxamide], the “effect against hNAAA” value [1] was “no effect”, the “h-liver microsomes % compound remaining at 1 h” value ([2]; 1 h) was 80% and the half-life at 4.6 μM ([2]; pH 7.4, read-out: h-liver microsomal stability t1/2) was > 1 h. For the same compound, the “Cer (d18:0/16:0) level” value ([3]; 10 μM, time course up to 6 h) was “increased”, the “Cer (d18:1/16:0) level” value ([3]; 10 μM, time course up to 6 h) was “increased” and the “HexCer (d18:1/16:0) level” value ([3]; 10 μM, time course up to 6 h) was “No major variations”. The “SM (d18:1/16:0) level” value ([3]; 10 μM, time course up to 6 h) was “No major variations”, the So levels ([3]; 10 μM, time course up to 6 h) was “decreased” and the “Cer (d18:0/16:0) level” value ([3]; 3 h incubation, 1-10 μM) was “accumulation”. For the same compound, the “Cer (d18:1/16:0) level” value ([3]; 3 h incubation, 1-10 μM) was “accumulation”, the “HexCer (d18:1/16:0) level” value ([3]; 3 h incubation, 1-10 μM) was “no major variations” and the “SM (d18:1/16:0) level” value ([3]; 3 h incubation, 1-10 μM) was “no major variations”. The So levels ([3]; 3 h incubation, 1-10 μM) was “decrease”.
